Measurements taken from US20210060166A1, “Method for the preparation of a 1,7-bis (4-hydroxy-3-methoxyphenyl)-1,6-heptadiene-3,5-dione system in polysorbates for the formation of micelles in an aqueous medium aimed at the properties of the bioavailability of curcuminoids” (priority 2019, published 2021).

How the values were obtained:
Format in all cases: physicochemical
[1] = integration of curcumin into aqueous phase with polysorbates (UV/VIS 424 nm); conditions: 25° C.
Experimental: Three concentrations of polysorbate of different value of HLB were evaluated in a 1:1 ratio for each mixture; With this combination of surfactants, 3 aqueous systems were prepared at concentrations of 0.0052%, 0.04% and 0.113% (% weight/weight). The first corresponds to a concentration below the individual Critical Micellar Concentration (CMC) of each surfactant 2.8529 mg/L, the second corresponds to a concentration slightly above the CMC 6.8439 mg/L and the third corresponds to a concentration well above the CMC, respectively 21.222 mg/L (FIG. 1). […] After 30 minutes of stirring at 500 RPM at 25° C., the suspensions were allowed to stand for 30 minutes and a sample from the supernatant was taken for UV/VIS spectrophotometric evaluation at 424 nm, using the 3 mentioned concentrations as blank.
The ability to form a micellar system of 1,7-bis (4-hydroxy-3-methoxyphenyl)-1,6-heptadien-3,5-dione at different percentages of polysorbates was evaluated.

[2] = dialysis release of curcumin through cellulose membrane
Description: Spectrum™ Spectra/Por™ 4 RC Dialysis Membrane Tubing 12,000 to 14,000 Dalton MWCO, cellulose, was used. The release conditions were pH 6.8, Polysorbate 1, 8%, Polysorbate 2, 4%. The pH 6.8 was used as Kiyohiko Sugano, Hirokazu Hamada, Minoru Machida, Hidetoshi Ushio, Kimitoshi Saitoh, Katsuhide Terada. Optimized conditions of bio-mimetic artificial membrane permeation assay. International Journal of Pharmaceutics Volume 228, Issues 1-2, 9 Oct. 2001, Pages 181-188 to simulate the conditions of the intestine, where the absorption of the compound is carried out. Concentrations of 8 and 4 percent of the polysorbates were used to ensure that the solution is above the CMC and the ability to form micelles is not lost, since the analytical method requires that an amount of release medium gets removed and replenish with simple medium (FEUM, volume 1, eleventh edition.).

[3] = suspension capacity of polysorbates for curcumin by gravimetry; conditions: Tween 80-Tween 20 (1:1)
Experimental: The suspension capacity of the polysorbates for 1,7-bis (4-hydroxy-3-methoxyphenyl)-1,6-heptadien-3,5-dione was evaluated by gravimetry according to P[…] THE UNITED MEXICAN STATES (FEUM), volume 1, eleventh edition.
Stating that at ratios of <100 of Tween 20 or 80, the capacity is not sufficient to suspend the required analyte dose. However, after 160 mg/mL (1:1) the presence of precipitate was found. In FIG. 2, different concentrations of polysorbate (Tween 80-Tween 20 (1:1) are specified in which, when mixed with analyte results in absence or presence of analyte precipitate (FIG. 3).

**Q.** Which “curcumin concentration in solution” value ([1]; polysorbates 0.0052% w/w (below CMC)) does the source give for `COc1cc(C=CC(=O)CC(=O)C=Cc2ccc(O)c(OC)c2)ccc1O` [curcumin, 1,7-bis (4-hydroxy-3-methoxyphenyl)-1,6-heptadien-3,5-dione] here?
**A.** 2.8529 mg/L

**Q.** And the “curcumin concentration in solution” value ([1]; polysorbates 0.04% w/w (slightly above CMC))?
**A.** 6.8439 mg/L

**Q.** What about the “curcumin concentration in solution” value ([1]; polysorbates 0.113% w/w (well above CMC)) of the same molecule?
**A.** 21.222 mg/L

**Q.** What about the “concentration released over time” value ([2]; absence of polysorbates in the medium) of the same molecule?
**A.** does not show any increase in concentration over time

**Q.** And the “concentration released over time” value ([2]; pH 6.8, Polysorbate 1 8%, Polysorbate 2 4%, 0.25 h to 20 h)?
**A.** increases with time

**Q.** And the “concentration after which presence of precipitate was found” value [3]?
**A.** > 160000 µg/mL
